Consider 19 compounds from PubChem BioAssay AID330 (DTP/NCI, 2004).

The assay deals with P388 leukemia ip, CD2F1 mice, survival T/C. The assay can be described thus: NCI In Vivo Anticancer Drug Screen. Data for tumor model P388 Leukemia (intraperitoneal) in CD2F1 (CDF1) mice. As to conditions: endpoint: median survival time, higher = longer survival. An outline of the steps: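 Mice carrying the transplanted tumor received test compound or vehicle. Survival was recorded in each group, and the value is the treated-group measurement divided by that of the vehicle-treated control group.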

Setting [1] is: dose: 50.0 mg/kg/injection, schedule: Q01DX009 (ip), vehicle: saline with Tween-80.
Where [2] appears, read: dose: 50.0 mg/kg/injection, schedule: Q01DX005 (ip), vehicle: saline.
Setting [3] is: dose: 100.0 mg/kg/injection, schedule: Q01DX005 (ip), vehicle: saline.
The mark [4] stands for this setting: dose: 200.0 mg/kg/injection, schedule: Q01DX005 (ip), vehicle: saline.
Setting [5] is: dose: 12.5 mg/kg/injection, schedule: Q01DX009 (ip), vehicle: saline.
Where [6] appears, read: dose: 25.0 mg/kg/injection, schedule: Q01DX009 (ip), vehicle: saline.
Where [7] appears, read: dose: 50.0 mg/kg/injection, schedule: Q01DX009 (ip), vehicle: saline.
Where [8] appears, read: dose: 60.0 mg/kg/injection, schedule: Q01DX005 (ip), vehicle: saline with Tween-80.
Where [9] appears, read: dose: 120.0 mg/kg/injection, schedule: Q01DX005 (ip), vehicle: saline with Tween-80.
The mark [10] stands for this setting: dose: 240.0 mg/kg/injection, schedule: Q01DX005 (ip), vehicle: saline with Tween-80.
[11] abbreviates: dose: 50.0 mg/kg/injection, schedule: Q01DX005 (ip), vehicle: Klucel (hydroxypropylcellulose) (HPC).
Setting [12] is: dose: 100.0 mg/kg/injection, schedule: Q01DX005 (ip), vehicle: Klucel (hydroxypropylcellulose) (HPC).
Setting [13] is: dose: 200.0 mg/kg/injection, schedule: Q01DX005 (ip), vehicle: Klucel (hydroxypropylcellulose) (HPC).

Several values for one entry are separate records, joined by “and”; a condition that tells them apart may be missing. Equal values may be shown once. Inconclusive results and toxic doses are left out.

With `CS(=O)(=O)CC(=N\N)/C(CS(C)(=O)=O)=N/N`, the T/C is, setting by setting: (dose: 60.0 mg/kg/injection, schedule: Q01DX005 (ip), vehicle: saline) 100 % of control; (dose: 120.0 mg/kg/injection, schedule: Q01DX005 (ip), vehicle: saline) 100 % of control; (dose: 240.0 mg/kg/injection, schedule: Q01DX005 (ip), vehicle: saline) 108 % of control.
Take `C#CCOc1ccc(C(F)(F)F)cc1`: the T/C was 105 % of control (dose: 25.0 mg/kg/injection, schedule: Q01DX009 (ip), vehicle: saline with Tween-80); 118 % of control under setting [1]; 119 % of control (dose: 100.0 mg/kg/injection, schedule: Q01DX009 (ip), vehicle: saline with Tween-80).
For `O=NNc1nc2ccccc2s1`, the T/C is 97 % of control (dose: 1.56 mg/kg/injection, schedule: Q01DX009 (ip), vehicle: water); 100 % of control and 105 % of control (dose: 3.12 mg/kg/injection, schedule: Q01DX009 (ip), vehicle: water); 106 % of control and 109 % of control (dose: 6.25 mg/kg/injection, schedule: Q01DX009 (ip), vehicle: water); 100 % of control and 92 % of control (dose: 12.5 mg/kg/injection, schedule: Q01DX009 (ip), vehicle: water); 102 % of control and 106 % of control (dose: 25.0 mg/kg/injection, schedule: Q01DX009 (ip), vehicle: water); 92 % of control (dose: 50.0 mg/kg/injection, schedule: Q01DX009 (ip), vehicle: water).
Turning to `NC(N)=NC(N)=NCCS(=O)(=O)O`, the T/C under setting [2] is 110 % of control, the T/C under setting [3] is 110 % of control and the T/C under setting [4] was 117 % of control.
For the compound `CCCCCC(N)C(C)=O` (stereo not drawn), the T/C was 110 % of control under setting [5]; 106 % of control under setting [6]; 106 % of control and 97 % of control under setting [1]; 105 % of control under setting [7]; 187 % of control (dose: 200.0 mg/kg/injection, schedule: Q01DX009 (ip), vehicle: saline with Tween-80); 187 % of control (dose: 400.0 mg/kg/injection, schedule: Q01DX009 (ip), vehicle: saline with Tween-80).
As for `O=C(O)c1ccc(NC(=O)C2C(=O)C(=O)N(c3ccc(C(=O)O)cc3)C2=O)cc1` (stereo not drawn), the T/C is 104 % of control (dose: 50.0 mg/kg/injection, schedule: Q01DX009 (ip), vehicle: Klucel (hydroxypropylcellulose) (HPC)); 100 % of control (dose: 100.0 mg/kg/injection, schedule: Q01DX009 (ip), vehicle: Klucel (hydroxypropylcellulose) (HPC)); 103 % of control (dose: 200.0 mg/kg/injection, schedule: Q01DX009 (ip), vehicle: Klucel (hydroxypropylcellulose) (HPC)).
With `Oc1cc(CN2CCCCC2)c(O)cc1CN1CCCCC1`, the T/C runs as follows: (dose: 3.12 mg/kg/injection, schedule: Q01DX009 (ip), vehicle: saline) 106 % of control; (dose: 6.25 mg/kg/injection, schedule: Q01DX009 (ip), vehicle: saline) 106 % of control; under setting [5], 98 % of control; under setting [6], 104 % of control.
Regarding `CNc1nc(-c2ccccc2)c(-c2ccccc2)[nH]1`, the T/C by setting is: (dose: 6.25 mg/kg/injection, schedule: Q04DX002 (ip), vehicle: saline) 105 % of control; (dose: 12.5 mg/kg/injection, schedule: Q04DX002 (ip), vehicle: saline) 100 % of control; (dose: 25.0 mg/kg/injection, schedule: Q04DX002 (ip), vehicle: saline) 97 % of control.
Consider `Cc1cc(Cl)cc2[s+]snc12`, for which the T/C is, setting by setting: under setting [8], 100 % of control; under setting [9], 101 % of control; under setting [10], 92 % of control.
As for `CCOC(=O)/N=[N+](\[O-])c1ccccc1`, the T/C by setting is: (dose: 0.2 mg/kg/injection, schedule: Q01DX009 (ip), vehicle: saline with Tween-80) 103 % of control; (dose: 0.39 mg/kg/injection, schedule: Q01DX009 (ip), vehicle: saline with Tween-80) 103 % of control; (dose: 0.78 mg/kg/injection, schedule: Q01DX009 (ip), vehicle: saline with Tween-80) 106 % of control and 95 % of control; (dose: 1.56 mg/kg/injection, schedule: Q01DX009 (ip), vehicle: saline with Tween-80) 109 % of control and 95 % of control; (dose: 3.12 mg/kg/injection, schedule: Q01DX009 (ip), vehicle: saline with Tween-80) 103 % of control and 123 % of control; (dose: 3.12 mg/kg/injection, schedule: Q04DX003 (ip), vehicle: saline with Tween-80) 112 % of control and 115 % of control. The T/C (dose: 6.25 mg/kg/injection, schedule: Q01DX009 (ip), vehicle: saline with Tween-80) was 107 % of control and 115 % of control; the T/C (dose: 6.25 mg/kg/injection, schedule: Q04DX003 (ip), vehicle: saline with Tween-80) was 99 % of control and 110 % of control; the T/C (dose: 12.5 mg/kg/injection, schedule: Q01DX009 (ip), vehicle: saline with Tween-80) was 115 % of control; the T/C (dose: 12.5 mg/kg/injection, schedule: Q04DX003 (ip), vehicle: saline with Tween-80) is 112 % of control and 117 % of control and 123 % of control; the T/C (dose: 25.0 mg/kg/injection, schedule: Q04DX003 (ip), vehicle: saline with Tween-80) was 110 % of control.
As to `Cc1cc(C)c(S(=O)(=O)N/N=C/C(=O)O)c(C)c1`, the T/C by setting is: (dose: 12.5 mg/kg/injection, schedule: Q01DX009 (ip), vehicle: other) 112 % of control and 117 % of control; (dose: 25.0 mg/kg/injection, schedule: Q01DX009 (ip), vehicle: other) 122 % of control; (dose: 100.0 mg/kg/injection, schedule: Q01DX009 (ip), vehicle: other) 154 % of control.
Turning to `COC(=O)c1cc(Nc2ccccc2)c2ncccc2c1O`, the T/C under setting [8] was 92 % of control, the T/C under setting [9] was 98 % of control and the T/C under setting [10] is 98 % of control.
For `C=CC/C(=N\OS(=O)(=O)O)SC1OC(CO)C(O)C(O)C1O` (stereo not drawn), the T/C reads like this: (dose: 25.0 mg/kg/injection, schedule: Q01DX005 (ip), vehicle: saline) 92 % of control and 98 % of control; under setting [2], 102 % of control [middle of 4 runs]; under setting [3], 101 % of control and 102 % of control and 104 % of control; under setting [4], 100 % of control and 101 % of control and 98 % of control.
Regarding `CCC12CCCN1CCc1c([nH]c3ccccc13)C2=O` (stereo not drawn), the T/C was 105 % of control (dose: 100.0 mg/kg/injection, schedule: Q04DX002 (ip), vehicle: suspension in saline) and 99 % of control (dose: 200.0 mg/kg/injection, schedule: Q04DX002 (ip), vehicle: suspension in saline).
As to `CCOC(=O)C(C(=O)OCC)=C(N)C(Cl)(Cl)Cl`, the T/C reads like this: (dose: 25.0 mg/kg/injection, schedule: Q01DX005 (ip), vehicle: Klucel (hydroxypropylcellulose) (HPC)) 116 % of control; under setting [11], 117 % of control; under setting [12], 111 % of control; under setting [13], 110 % of control.
As for `COc1ccc(C(=O)C(CCC(=O)/C=C/c2ccccc2)S(C)(=O)=O)cc1` (stereo not drawn), the T/C under setting [11] is 105 % of control, the T/C under setting [12] is 99 % of control and the T/C under setting [13] was 87 % of control.
Regarding `C=C(C)c1c2ccccc2cc2cccc(Sc3ccccc3)c12`, the T/C was 90 % of control (dose: 100.0 mg/kg/injection, schedule: Q04DX003 (ip), vehicle: saline with Tween-80); 90 % of control (dose: 200.0 mg/kg/injection, schedule: Q04DX003 (ip), vehicle: saline with Tween-80); 90 % of control (dose: 400.0 mg/kg/injection, schedule: Q04DX003 (ip), vehicle: saline with Tween-80).
In the case of `O=[N+]([O-])c1cccc(C2OCC3(CO2)COC(c2cccc([N+](=O)[O-])c2)OC3)c1` (stereo not drawn), the T/C is, setting by setting: under setting [7], 100 % of control; (dose: 100.0 mg/kg/injection, schedule: Q01DX009 (ip), vehicle: saline) 100 % of control; (dose: 200.0 mg/kg/injection, schedule: Q01DX009 (ip), vehicle: saline) 101 % of control.
With `NS(=O)(=O)c1cc2c(cc1Cl)NC(Cc1ccccc1)NS2(=O)=O` (stereo not drawn), the T/C by setting is: under setting [8], 100 % of control; under setting [9], 93 % of control; under setting [10], 93 % of control.
